Test system: 292921-168-R-J2-PDC complex spheroid growth
Test: Anticancer human tumor 292921-168-R-J2-PDC patient-derived pancreatic carcinoma cell line growth inhibition [AhR]
Conditions: for viability, T/C: stronger effect = lower value
In short: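 Spheroids combined tumor cells with HUVEC endothelial cells and human MSCs as stroma. AhR antagonists were paired with standard or investigational drugs, each dosed in half-log steps down from near clinical Cmax, or from 10 microM where Cmax was unknown.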

[1] = curve of first compound, second compound 0.1 µM
[2] = curve of first compound, second compound 0.316 µM
[3] = curve of first compound, second compound 1 µM
[4] = curve of first compound, second compound 3.16 µM
[5] = curve of first compound, second compound 10 µM
[6] = second compound 0.1 µM, first compound 0.00949 µM
[7] = second compound 0.1 µM, first compound 0.03 µM
[8] = second compound 0.1 µM, first compound 0.0949 µM
[9] = second compound 0.1 µM, first compound 0.3 µM
[10] = second compound 0.1 µM, first compound 0.949 µM
[11] = second compound 0.1 µM, first compound 3 µM
[12] = second compound 0.316 µM, first compound 0.00949 µM
[13] = second compound 0.316 µM, first compound 0.03 µM
[14] = second compound 0.316 µM, first compound 0.0949 µM
[15] = second compound 0.316 µM, first compound 0.3 µM
[16] = second compound 0.316 µM, first compound 0.949 µM
[17] = second compound 0.316 µM, first compound 3 µM
[18] = second compound 1 µM, first compound 0.00949 µM
[19] = second compound 1 µM, first compound 0.03 µM
[20] = second compound 1 µM, first compound 0.0949 µM
[21] = second compound 1 µM, first compound 0.3 µM
[22] = second compound 1 µM, first compound 0.949 µM
[23] = second compound 1 µM, first compound 3 µM
[24] = second compound 3.16 µM, first compound 0.00949 µM
[25] = second compound 3.16 µM, first compound 0.03 µM
[26] = second compound 3.16 µM, first compound 0.0949 µM
[27] = second compound 3.16 µM, first compound 0.3 µM
[28] = second compound 3.16 µM, first compound 0.949 µM
[29] = second compound 3.16 µM, first compound 3 µM
[30] = second compound 10 µM, first compound 0.00949 µM
[31] = second compound 10 µM, first compound 0.03 µM
[32] = second compound 10 µM, first compound 0.0949 µM
[33] = second compound 10 µM, first compound 0.3 µM
[34] = second compound 10 µM, first compound 0.949 µM
[35] = second compound 10 µM, first compound 3 µM
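Also: spheroids exposed to compounds for seven days after three days of growth.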

## O=C(C=Cn1cnc(-c2cc(C(F)(F)F)cc(C(F)(F)F)c2)n1)NNc1cnccn1 + Cc1cncc(-c2nc(NCCc3c[nH]c4ccccc34)c3ncn(C(C)C)c3n2)c1
[1]
  IC50: 179 nM
[2]
  IC50: 165 nM
[3]
  IC50: 194 nM
[4]
  IC50: 108 nM
[5]
  IC50: 107 nM
[6]
  viability, T/C: 90.8%
[7]
  viability, T/C: 85.3%
[8]
  viability, T/C: 62.6%
[9]
  viability, T/C: 39.1%
[10]
  viability, T/C: 23%
[11]
  viability, T/C: 15.2%
[12]
  viability, T/C: 91.9%
[13]
  viability, T/C: 86.2%
[14]
  viability, T/C: 62.1%
[15]
  viability, T/C: 36.2%
[16]
  viability, T/C: 21.2%
[17]
  viability, T/C: 16.2%
[18]
  viability, T/C: 91%
[19]
  viability, T/C: 80.2%
[20]
  viability, T/C: 62.4%
[21]
  viability, T/C: 42.5%
[22]
  viability, T/C: 24.6%
[23]
  viability, T/C: 13.1%
[24]
  viability, T/C: 83.6%
[25]
  viability, T/C: 71%
[26]
  viability, T/C: 51.5%
[27]
  viability, T/C: 35.2%
[28]
  viability, T/C: 21.9%
[29]
  viability, T/C: 18.9%
[30]
  viability, T/C: 54.4%
[31]
  viability, T/C: 58.1%
[32]
  viability, T/C: 51.2%
[33]
  viability, T/C: 38.7%
[34]
  viability, T/C: 35.5%
[35]
  viability, T/C: 29.1%

## CC1COCCN1c1cc(-c2ccnn2C)c2ccnc(-c3ccn[nH]3)c2n1 (stereo unspecified) + CC(CO)NC(=O)c1cc(-c2ccc(Cl)cc2)nn(-c2cnn(C)c2)c1=O
[1]
  IC50: 43.3 nM
[2]
  IC50: 46.4 nM
[3]
  IC50: 33 nM
[4]
  IC50: 27.9 nM
[5]
  IC50: 10.3 nM
Second compound 0.1 µM, first compound 0.00316 µM
  viability, T/C: 93.5%
Second compound 0.1 µM, first compound 0.01 µM
  viability, T/C: 91%
Second compound 0.1 µM, first compound 0.0316 µM
  viability, T/C: 56.1%
Second compound 0.1 µM, first compound 0.1 µM
  viability, T/C: 31.4%
Second compound 0.1 µM, first compound 0.316 µM
  viability, T/C: 22.7%
Second compound 0.1 µM, first compound 1 µM
  viability, T/C: 19.7%
Second compound 0.316 µM, first compound 0.00316 µM
  viability, T/C: 96.8%
Second compound 0.316 µM, first compound 0.01 µM
  viability, T/C: 84.1%
Second compound 0.316 µM, first compound 0.0316 µM
  viability, T/C: 56.6%
Second compound 0.316 µM, first compound 0.1 µM
  viability, T/C: 35.3%
Second compound 0.316 µM, first compound 0.316 µM
  viability, T/C: 22%
Second compound 0.316 µM, first compound 1 µM
  viability, T/C: 17.8%
Second compound 1 µM, first compound 0.00316 µM
  viability, T/C: 100%
Second compound 1 µM, first compound 0.01 µM
  viability, T/C: 90.8%
Second compound 1 µM, first compound 0.0316 µM
  viability, T/C: 49%
Second compound 1 µM, first compound 0.1 µM
  viability, T/C: 29.1%
Second compound 1 µM, first compound 0.316 µM
  viability, T/C: 21.5%
Second compound 1 µM, first compound 1 µM
  viability, T/C: 17.3%
Second compound 3.16 µM, first compound 0.00316 µM
  viability, T/C: 86.6%
Second compound 3.16 µM, first compound 0.01 µM
  viability, T/C: 75.2%
Second compound 3.16 µM, first compound 0.0316 µM
  viability, T/C: 46.9%
Second compound 3.16 µM, first compound 0.1 µM
  viability, T/C: 24.9%
Second compound 3.16 µM, first compound 0.316 µM
  viability, T/C: 17.7%
Second compound 3.16 µM, first compound 1 µM
  viability, T/C: 17.1%
Second compound 10 µM, first compound 0.00316 µM
  viability, T/C: 62.8%
Second compound 10 µM, first compound 0.01 µM
  viability, T/C: 51%
Second compound 10 µM, first compound 0.0316 µM
  viability, T/C: 26.8%
Second compound 10 µM, first compound 0.1 µM
  viability, T/C: 19.7%
Second compound 10 µM, first compound 0.316 µM
  viability, T/C: 15.3%
Second compound 10 µM, first compound 1 µM
  viability, T/C: 15.8%

## O=C(C=Cn1cnc(-c2cc(C(F)(F)F)cc(C(F)(F)F)c2)n1)NNc1cnccn1 + CC(CO)NC(=O)c1cc(-c2ccc(Cl)cc2)nn(-c2cnn(C)c2)c1=O
[1]
  IC50: 88.1 nM
[2]
  IC50: 106 nM
[3]
  IC50: 97.7 nM
[4]
  IC50: 80.2 nM
[5]
  IC50: 49.8 nM
[6]
  viability, T/C: 85.4%
[7]
  viability, T/C: 91%
[8]
  viability, T/C: 47%
[9]
  viability, T/C: 31.1%
[10]
  viability, T/C: 22.5%
[11]
  viability, T/C: 13.4%
[12]
  viability, T/C: 84.6%
[13]
  viability, T/C: 75.5%
[14]
  viability, T/C: 49.8%
[15]
  viability, T/C: 32%
[16]
  viability, T/C: 20.2%
[17]
  viability, T/C: 13.2%
[18]
  viability, T/C: 93.6%
[19]
  viability, T/C: 76.5%
[20]
  viability, T/C: 50.5%
[21]
  viability, T/C: 28.9%
[22]
  viability, T/C: 19.1%
[23]
  viability, T/C: 14.3%
[24]
  viability, T/C: 84.5%
[25]
  viability, T/C: 67.8%
[26]
  viability, T/C: 47%
[27]
  viability, T/C: 29.6%
[28]
  viability, T/C: 17.7%
[29]
  viability, T/C: 14.7%
[30]
  viability, T/C: 66.2%
[31]
  viability, T/C: 58.9%
[32]
  viability, T/C: 39.1%
[33]
  viability, T/C: 22.4%
[34]
  viability, T/C: 18.5%
[35]
  viability, T/C: 13.2%

## CC(CO)NC(=O)c1cc(-c2ccc(Cl)cc2)nn(-c2cnn(C)c2)c1=O (stereo unspecified)
Compound 0.1 µM
  viability, T/C: 102% [middle of 21 runs]
Compound 0.316 µM
  viability, T/C: 98.8% [middle of 21 runs]
Compound 1 µM
  viability, T/C: 99.2% [middle of 20 runs]
Compound 3.16 µM
  viability, T/C: 88.8% [middle of 19 runs]
Compound 10 µM
  viability, T/C: 70.5% [middle of 19 runs]
Compound alone, run of 05/31/2022
  IC50: > 10000 nM

— PubChem BioAssay AID1918994 (Molecular Pharmacology Branch, DTP, NCI, 2023)
